Laboratory results reported in patent US12180187B2, “1-phenyl-5-azinylpyrazolyl-3-oxyalkyl acids and their use for controlling unwanted plant growth” (BAYER AKTIENGESELLSCHAFT, priority 2019, dated 2024).

Assays:
POLCO [1] = assay: Pre-emergence action at 320 g/ha against POLCO; type: in vivo, Fallopia convolvulus (Polygonum convolvulus); settings: visual scoring after about 3 weeks vs untreated controls
Method in brief: (§1)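 Greenhouse pot trial in which formulated compound (wettable powder or emulsion concentrate) goes onto the soil surface right after sowing, at a spray volume of 600 l/ha including 0.5% additive. Effects are judged visually after about 3 weeks (0% = like control, 100% = dead).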

DIGSA [2] = assay: Post-emergence action at 320 g/ha against DIGSA; type: in vivo, Digitaria sanguinalis; settings: Digitaria sanguinalis, 504 h, dosage 320 g/ha, visual rating about 3 weeks after treatment vs untreated controls (100% = plants died)
Source text: (§2) Accordingly, the compounds of the invention have good herbicidal action against a broad spectrum of weed grasses and broad-leaved weeds and are therefore suitable for controlling unwanted vegetation by the post-emergence method. • b) Seeds of monocotyledonous and dicotyledonous weeds and crop plants are placed in sandy loam in plastic or organic planting pots, covered with soil and cultivated in a greenhouse under controlled growth conditions. 2 to 3 weeks after sowing, the test plants are treated at the one-leaf stage. The compounds of the invention, formulated in the form of wettable powders (WP) or as emulsion concentrates (EC), are then sprayed onto the green parts of the plants as aqueous suspension or emulsion with addition of 0.5% additive at a water application rate of 600 l/ha (converted). After the test plants have been kept in the greenhouse under optimum growth conditions for about 3 weeks, the activity of the preparations is rated visually in comparison to untreated controls. For example, 100% activity=the plants have died, 0% activity=like control plants. Tables 39 to 49 below show the effects of selected compounds of the general formula (I) according to Tables 1 and 2 on various harmful plants and at an application rate corresponding to 320 g/ha, which were obtained by the experimental procedure mentioned above.

AMARE [3] = assay: Pre-emergence action at 320 g/ha against AMARE; type: in vivo, Amaranthus retroflexus; settings: visual scoring after about 3 weeks vs untreated controls
Method in brief: as §1

MATIN [4] = assay: Pre-emergence action at 320 g/ha against MATIN; type: in vivo, Tripleurospermum inodorum (Matricaria inodora); settings: visual scoring after about 3 weeks vs untreated controls
Method in brief: as §1

ALOMY [5] = assay: Post-emergence action against ALOMY, 320 g/ha; type: in vivo, Alopecurus myosuroides; settings: dosage 320 g/ha, visual rating about 3 weeks after treatment vs untreated controls (100% = plants died)
Source text: as §2

SETVI [6] = assay: Pre-emergence action at 320 g/ha against SETVI; type: in vivo, Setaria viridis; settings: Setaria viridis, 504 h, visual scoring after about 3 weeks vs untreated controls
Method in brief: as §1

VIOTR [7] = assay: Pre-emergence action at 320 g/ha against VIOTR; type: in vivo, Viola tricolor; settings: dosage 320 g/ha
Method in brief: as §1

ALOMY [8] = assay: Pre-emergence action at 320 g/ha against ALOMY; type: in vivo, Alopecurus myosuroides; settings: scored visually after about 3 weeks vs untreated controls (100% = plants have died)
Method in brief: as §1

ECHCG [9] = assay: Post-emergence action at 320 g/ha against ECHCG; type: in vivo, Echinochloa crus-galli; settings: dosage 320 g/ha, visual rating about 3 weeks after treatment vs untreated controls (100% = plants died)
Source text: as §2

AVEFA [10] = assay: Post-emergence action at 320 g/ha against AVEFA; type: in vivo; settings: Avena fatua, 504 h, visual rating about 3 weeks after treatment vs untreated controls
Source text: as §2

VIOTR [11] = assay: Post-emergence action at 320 g/ha against VIOTR; type: in vivo, Viola tricolor; settings: Viola tricolor, 504 h, visual rating about 3 weeks after treatment vs untreated controls
Source text: as §2

LOLRI [12] = assay: Pre-emergence action at 320 g/ha against LOLRI; type: in vivo, Lolium rigidum; settings: visual scoring after about 3 weeks vs untreated controls
Method in brief: as §1

AMARE [13] = assay: Post-emergence action at 320 g/ha against AMARE; type: in vivo, Amaranthus retroflexus; settings: Amaranthus retroflexus, 504 h, visual rating about 3 weeks after treatment vs untreated controls
Source text: as §2

POLCO [14] = assay: Post-emergence action at 320 g/ha against POLCO; type: in vivo, Fallopia convolvulus (Polygonum convolvulus); settings: Fallopia convolvulus, 504 h, visual rating about 3 weeks after treatment vs untreated controls
Source text: as §2

SETVI [15] = assay: Post-emergence action at 320 g/ha against SETVI; type: in vivo, Setaria viridis; settings: visual rating about 3 weeks after treatment vs untreated controls
Source text: as §2

DIGSA [16] = assay: Pre-emergence action at 320 g/ha against DIGSA; type: in vivo, Digitaria sanguinalis; settings: visual scoring after about 3 weeks vs untreated controls
Method in brief: as §1

STEME = assay: Pre-emergence action against STEME, 1280 g/ha; type: in vivo, Stellaria media; settings: scored visually after about 3 weeks vs untreated controls (100% = plants have died)
Method in brief: (§3)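 Percent herbicidal effect, judged by eye relative to untreated pots around 3 weeks after soil-surface treatment. Application: formulated compound in water, 600 L/ha, 0.5% additive, on soil over sown seeds; greenhouse.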

POAAN [17] = assay: Pre-emergence action against POAAN, 1280 g/ha; type: in vivo, Poa annua; settings: visual scoring after about 3 weeks vs untreated controls, 100% = plants have died, 0% = like control plants
Method in brief: as §3

MATIN [18] = assay: Pre-emergence action against MATIN, 1280 g/ha; type: in vivo, Tripleurospermum inodorum (Matricaria inodora); settings: scored visually after about 3 weeks vs untreated controls (100% = plants have died)
Method in brief: as §3

SETVI [19] = assay: Post-emergence action against SETVI, 1.28 kg/ha; type: in vivo, Setaria viridis; settings: dosage 1280 g/ha, visual rating about 3 weeks after treatment vs untreated controls
Method in brief: (§4)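 Herbicidal action is estimated by eye after about three weeks under optimum greenhouse conditions, on a 0–100% scale against untreated plants. Compounds are applied post-emergence to one-leaf-stage weeds as aqueous WP or EC preparations containing 0.5% additive, sprayed at 600 L/ha.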

ALOMY [20] = assay: Pre-emergence action against ALOMY, 1280 g/ha; type: in vivo, Alopecurus myosuroides; settings: visual scoring after about 3 weeks vs untreated controls, 100% = plants have died, 0% = like control plants
Method in brief: as §3

VERPE [21] = assay: Pre-emergence action at 320 g/ha against VERPE; type: in vivo, Veronica persica; settings: visual scoring after about 3 weeks vs untreated controls
Method in brief: as §1

AMARE [22] = assay: Pre-emergence action against AMARE, 1280 g/ha; type: in vivo, Amaranthus retroflexus; settings: scored visually after about 3 weeks vs untreated controls (100% = plants have died)
Method in brief: as §3

MATIN [23] = assay: Post-emergence action against MATIN, 1.28 kg/ha; type: in vivo, Tripleurospermum inodorum (Matricaria inodora); settings: dosage 1280 g/ha, visual rating about 3 weeks after treatment vs untreated controls (100% = plants died)
Method in brief: as §4

LOLRI [24] = assay: Post-emergence action against LOLRI, 1.28 kg/ha; type: in vivo, Lolium rigidum; settings: dosage 1280 g/ha, visual rating about 3 weeks after treatment vs untreated controls
Method in brief: as §4

AVEFA [25] = assay: Pre-emergence action at 320 g/ha against AVEFA; type: in vivo; settings: visual scoring after about 3 weeks vs untreated controls
Method in brief: as §1

LOLRI [26] = assay: Pre-emergence action against LOLRI, 1280 g/ha; type: in vivo, Lolium rigidum; settings: visual scoring after about 3 weeks vs untreated controls, 100% = plants have died, 0% = like control plants
Method in brief: as §3

VERPE [27] = assay: Pre-emergence action against VERPE, 1280 g/ha; type: in vivo, Veronica persica; settings: scored visually after about 3 weeks vs untreated controls (100% = plants have died)
Method in brief: as §3

POAAN [28] = assay: Post-emergence action against POAAN, 1.28 kg/ha; type: in vivo, Poa annua; settings: dosage 1280 g/ha, visual rating about 3 weeks after treatment vs untreated controls
Method in brief: as §4

ECHCG [29] = assay: Post-emergence action against ECHCG, 1.28 kg/ha; type: in vivo, Echinochloa crus-galli; settings: dosage 1280 g/ha, visual rating about 3 weeks after treatment vs untreated controls
Method in brief: as §4

DIGSA [30] = assay: Pre-emergence action against DIGSA, 1280 g/ha; type: in vivo, Digitaria sanguinalis; settings: visual scoring after about 3 weeks vs untreated controls, 100% = plants have died, 0% = like control plants
Method in brief: as §3

ABUTH = assay: Post-emergence action against ABUTH, 1.28 kg/ha; type: in vivo, Abutilon theophrasti; settings: dosage 1280 g/ha, visual rating about 3 weeks after treatment vs untreated controls (100% = plants died)
Method in brief: as §4

DIGSA [31] = assay: Post-emergence action against DIGSA, 1.28 kg/ha; type: in vivo, Digitaria sanguinalis; settings: dosage 1280 g/ha, visual rating about 3 weeks after treatment vs untreated controls
Method in brief: as §4

AMARE [32] = assay: Post-emergence action against AMARE, 1.28 kg/ha; type: in vivo, Amaranthus retroflexus; settings: dosage 1280 g/ha, visual rating about 3 weeks after treatment vs untreated controls (100% = plants died)
Method in brief: as §4

VERPE [33] = assay: Post-emergence action against VERPE, 1.28 kg/ha; type: in vivo, Veronica persica; settings: dosage 1280 g/ha, visual rating about 3 weeks after treatment vs untreated controls (100% = plants died)
Method in brief: as §4

SETVI [34] = assay: Pre-emergence action against SETVI, 1280 g/ha; type: in vivo, Setaria viridis; settings: visual scoring after about 3 weeks vs untreated controls, 100% = plants have died, 0% = like control plants
Method in brief: as §3

ALOMY [35] = assay: Post-emergence action against ALOMY, 1.28 kg/ha; type: in vivo, Alopecurus myosuroides; settings: dosage 1280 g/ha, visual rating about 3 weeks after treatment vs untreated controls
Method in brief: as §4

ECHCG [36] = assay: Pre-emergence action against ECHCG, 1280 g/ha; type: in vivo, Echinochloa crus-galli; settings: visual scoring after about 3 weeks vs untreated controls, 100% = plants have died, 0% = like control plants
Method in brief: as §3

COC(=O)[C@@H](C)Oc1nn(-c2ccccc2F)c(-c2ccc(F)nc2)c1Br [VII-004, Methyl (2R)-2-{[4-bromo-1-(2-fluorophenyl)-5-(6-fluoropyridin-3-yl)-1H-pyrazol-3-yl]oxy}propanoate]
100%: pest or weed control at 320 g/ha (SETVI [6]) | pest or weed control at 320 g/ha (VIOTR [7]; Viola tricolor, 504 h) | pest or weed control at 320 g/ha (DIGSA [16]; Digitaria sanguinalis, 504 h)
80%: pest or weed control at 320 g/ha (MATIN [4]; Tripleurospermum inodorum, 504 h) | pest or weed control at 320 g/ha (LOLRI [12]; Lolium rigidum, 504 h) | pest or weed control at 320 g/ha (POLCO [14])
90%: pest or weed control at 320 g/ha (POLCO [1]; Fallopia convolvulus, 504 h) | pest or weed control at 320 g/ha (DIGSA [2]) | pest or weed control at 320 g/ha (AMARE [3]; Amaranthus retroflexus, 504 h) | Post-emergence action against ALOMY (ALOMY [5]) | pest or weed control at 320 g/ha (ALOMY [8]; Alopecurus myosuroides, 504 h) | Post-emergence action at 320 g/ha against ECHCG in % (ECHCG [9]) | pest or weed control at 320 g/ha (AVEFA [10]) | pest or weed control at 320 g/ha (VIOTR [11]) | pest or weed control at 320 g/ha (AMARE [13]) | Post-emergence action against SETVI in % (SETVI [15])

CCOC(=O)COc1nn(-c2ccccc2C)c(-c2ccc(F)nc2)c1Br [VII-056-a]
80%: Pre-emergence action against MATIN in % (MATIN [4]) | Post-emergence action at 320 g/ha against ECHCG in % (ECHCG [9]) | Post-emergence action against SETVI in % (SETVI [15])
100%: Pre-emergence action against STEME (STEME) | Pre-emergence action against AMARE in % (AMARE [3]) | Pre-emergence action against POAAN (POAAN [17]) | Pre-emergence action against MATIN (MATIN [18]) | Post-emergence action against SETVI (SETVI [19]) | Pre-emergence action against VERPE in % (VERPE [21]) | Pre-emergence action against AMARE (AMARE [22]) | Post-emergence action against MATIN (MATIN [23]) | Post-emergence action against LOLRI (LOLRI [24]) | Pre-emergence action against VERPE (VERPE [27]) | Post-emergence action against POAAN (POAAN [28]) | Post-emergence action against ECHCG (ECHCG [29]) | Pre-emergence action against DIGSA (DIGSA [30]) | Pre-emergence action against VIOTR in % (VIOTR [7]) | Post-emergence action against DIGSA (DIGSA [31]) | Pre-emergence action at 320 g/ha against ALOMY in % (ALOMY [8]) | Post-emergence action against AMARE (AMARE [32]) | Post-emergence action against VERPE (VERPE [33]) | Pre-emergence action against SETVI (SETVI [34]) | Post-emergence action against ALOMY (ALOMY [35]) | Pre-emergence action against ECHCG (ECHCG [36]) | Pre-emergence action against DIGSA in % (DIGSA [16])
90%: Pre-emergence action against POLCO in % (POLCO [1]) | Pre-emergence action against ALOMY (ALOMY [20]) | Pre-emergence action against AVEFA in % (AVEFA [25]) | Pre-emergence action against LOLRI (LOLRI [26]) | Post-emergence action against ABUTH (ABUTH) | Post-emergence action against ALOMY (ALOMY [5]) | Pre-emergence action against LOLRI in % (LOLRI [12])
